Assays:
[1] = target: T1, Recombinant purified human JAK3 (Homo sapiens, UniProt P52333); test: JAK3 kinase inhibitory activity, ADP-Glo kinase assay (Promega V9441); assay type: biochemical; settings: ATP 5 uM, 4 ng JAK3 per reaction, 1 hour 30 °C, chemiluminescence
T1 construct: purchased Promega V9441
T1 sequence (P52333 1-1124): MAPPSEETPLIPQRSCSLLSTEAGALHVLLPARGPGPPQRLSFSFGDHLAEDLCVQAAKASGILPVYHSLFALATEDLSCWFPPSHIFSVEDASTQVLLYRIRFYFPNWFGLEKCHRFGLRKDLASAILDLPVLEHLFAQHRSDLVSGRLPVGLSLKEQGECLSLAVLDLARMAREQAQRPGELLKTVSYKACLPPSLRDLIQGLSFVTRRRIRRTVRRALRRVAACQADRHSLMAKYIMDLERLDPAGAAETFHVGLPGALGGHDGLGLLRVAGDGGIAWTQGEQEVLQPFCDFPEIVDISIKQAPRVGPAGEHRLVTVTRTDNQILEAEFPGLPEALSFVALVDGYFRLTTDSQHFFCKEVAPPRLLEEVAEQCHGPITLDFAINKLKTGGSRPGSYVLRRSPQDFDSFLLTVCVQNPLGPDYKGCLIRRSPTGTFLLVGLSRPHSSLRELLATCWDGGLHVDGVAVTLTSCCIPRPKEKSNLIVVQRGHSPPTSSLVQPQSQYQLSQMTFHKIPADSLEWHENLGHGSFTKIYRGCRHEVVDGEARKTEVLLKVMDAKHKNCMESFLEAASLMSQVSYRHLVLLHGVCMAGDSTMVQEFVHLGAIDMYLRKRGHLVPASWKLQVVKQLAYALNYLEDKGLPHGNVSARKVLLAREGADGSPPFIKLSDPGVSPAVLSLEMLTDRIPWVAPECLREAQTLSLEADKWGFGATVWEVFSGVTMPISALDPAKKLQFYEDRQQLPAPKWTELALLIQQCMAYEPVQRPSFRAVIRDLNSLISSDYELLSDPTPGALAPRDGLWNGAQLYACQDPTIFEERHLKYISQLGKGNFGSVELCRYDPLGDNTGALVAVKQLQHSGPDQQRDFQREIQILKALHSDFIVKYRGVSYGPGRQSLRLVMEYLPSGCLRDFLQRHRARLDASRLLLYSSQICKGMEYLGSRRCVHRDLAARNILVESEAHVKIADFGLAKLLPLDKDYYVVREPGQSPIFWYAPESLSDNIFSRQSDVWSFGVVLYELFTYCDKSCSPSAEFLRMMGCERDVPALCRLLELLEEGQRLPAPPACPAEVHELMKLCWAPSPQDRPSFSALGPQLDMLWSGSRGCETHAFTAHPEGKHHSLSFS
Experimental: (§1) JAK3 and BTK kinase inhibitory activities were measured for the compounds prepared in the above Examples through in vitro analysis on the ADP Glow (Glo) platform.
(§2) Specifically, the inhibitory activities of JAK3 and BTK kinase were measured using a JAK3 kinase assay kit (Promega, V9441) and a BTK kinase assay kit (Promega, V9071) which were purchased from Promega. Recombinant purified human JAK3 and BTK were diluted with 1 x kinase reaction buffer (JAK3: 40 mM Tris-Cl, pH 7.5, 20 mM MgCh, 0.1 mg/mL BSA and 50 uM DTT / BTK: 40 mM Tris-Cl, pH 7.5, 20 mM MgCl2, 0.1 mg/mL BSA, 2 mM MnCl2 and 50 uM DTT) and added to a 96 well plate (JAK3: final concentration of 4 ng per reaction/BTK: final concentration of 8 ng per reaction). The compounds were treated so as to be finally a 1% DMSO aqueous solution, and a substrate cocktail containing ATP (JAK3: final concentration of 5 uM / BTK: final concentration of 10 uM) and 0.2 µg/µL of Poly(Glu4, Tyr1) peptide (JAK3 and BTK final concentration) in the total 25 µL reactants was added to a 96-well plate to initiate enzymatic reaction. After incubation (30 °C) for 1 hour, equivalent volume (25 µL per reaction) of ADP Glo was added and incubated (30 °C) for 40 minutes at room temperature. Then, a kinase detection reagent (50 µL per reaction) was added and incubated (30 °C) for 30 minutes at room temperature. The kinase activity was measured by chemiluminescence according to the instructions of ADP Glo kinase assay kit, and the inhibitory activity of the compounds according to the present invention was calculated. For the analysis of the results of each compound, Microsoft Excel was used, and IC50 values were calculated by SigmaPlot software.

[2] = target: T2, Recombinant purified human BTK (Homo sapiens, UniProt Q06187); test: BTK kinase inhibitory activity, ADP-Glo kinase assay (Promega V9071); assay type: biochemical; settings: for IC50: ATP 10 uM, 8 ng BTK per reaction, 1 hour 30 °C, chemiluminescence
T2 construct: purchased Promega V9071
T2 sequence (Q06187 whole entry): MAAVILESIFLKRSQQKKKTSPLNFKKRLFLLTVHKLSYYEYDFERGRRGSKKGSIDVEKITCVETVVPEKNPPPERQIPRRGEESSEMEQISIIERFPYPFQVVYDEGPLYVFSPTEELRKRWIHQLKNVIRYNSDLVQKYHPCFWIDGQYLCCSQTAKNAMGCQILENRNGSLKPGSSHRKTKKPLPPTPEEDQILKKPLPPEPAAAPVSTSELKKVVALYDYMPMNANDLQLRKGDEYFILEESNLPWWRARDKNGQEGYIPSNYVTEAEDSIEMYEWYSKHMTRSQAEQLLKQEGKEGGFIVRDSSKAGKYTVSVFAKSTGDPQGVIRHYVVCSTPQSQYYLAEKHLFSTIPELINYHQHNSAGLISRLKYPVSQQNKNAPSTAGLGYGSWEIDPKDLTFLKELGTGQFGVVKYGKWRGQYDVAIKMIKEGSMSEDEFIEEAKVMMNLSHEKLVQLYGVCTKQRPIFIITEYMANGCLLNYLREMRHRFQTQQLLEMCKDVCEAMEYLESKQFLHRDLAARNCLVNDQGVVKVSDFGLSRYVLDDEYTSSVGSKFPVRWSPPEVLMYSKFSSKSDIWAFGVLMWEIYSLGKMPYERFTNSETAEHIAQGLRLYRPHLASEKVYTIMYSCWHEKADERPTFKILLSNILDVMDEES
Experimental: as §1, §2

SMILES | IC50 [1] | IC50 [2] | inhibition at 0.1 µM ([2]; @100nM compound)
C=CC(=O)N1CCC[C@@H](Nc2nc(Nc3cnn(CC(F)F)c3)nc3[nH]nc(C)c23)C1 [Example 184, (R)-1-(3-((6-((1-(2,2-difluoroethyl)-1H-pyrazol-4-yl)amino)-3-methyl-1H-pyrazolo[3,4-d]pyrimidin-4-yl)amino)piperidin-1-yl)prop-2-en-1-one] | 4.4 nM | 1.4 nM | –
C=CC(=O)N1CCC[C@@H](Sc2nc(Nc3cnn(CC)c3)nc3[nH]ccc23)C1 [Example 104, (R)-1-(3-((2-((1-ethyl-1H-pyrazol-4-yl)amino)-7H-pyrrolo[2,3-d]pyrimidin-4-yl)thio)piperidin-1-yl)prop-2-en-1-one] | 0.3 nM | 2.7 nM | –
CCn1cc(Nc2nc(S[C@@H]3CCCN(C(=O)/C(C#N)=C/C4CC4)C3)c3c(Cl)c[nH]c3n2)cn1 [Example 179] | 1.1 nM | 8.3 nM | –
C=CC(=O)N1CCC[C@@H](Nc2nc(Nc3ccc(N4CCCC4)cc3)nc3[nH]ccc23)C1 [Example 5, (R)-1-(3-(2-(4-(pyrrolidin-1-yl)phenylamino)-7H-pyrrolo[2,3-d]pyrimidin-4-ylamino)piperidin-1-yl)prop-2-en-1-one] | 24.6 nM | 76.7 nM | –
C=CC(=O)N1CCC[C@@H](Nc2nc(Nc3cnn(CC(C)C)c3)nc3[nH]nc(C)c23)C1 [Example 186, (R)-1-(3-((6-((1-isobutyl-1H-pyrazol-4-yl)amino)-3-methyl-1H-pyrazolo [3,4-d]pyrimidin-4-yl)amino)piperidin-1-yl)prop-2-en-1-one] | 18 nM | 1.6 nM | –
CN1CCN(c2ccc(Nc3nc(N[C@@H]4CCCN(C(=O)C#CC5CC5)C4)c4c(Cl)c[nH]c4n3)cc2)CC1 [Example 141, (R)-1-(3-((5-chloro-2-((4-(4-methylpiperazin-1-yl)phenyl)amino)-7H-pyrrolo [2,3-d]pyrimidin-4-yl)amino)piperidin-1-yl)-3-cyclopropylprop-2-yn-1-one] | 38.5 nM | 306 nM | –
C=CC(=O)N1CCC[C@@H](Oc2nc(Nc3cnn(CC)c3)nc3[nH]cc(C#N)c23)C1 [Example 150, (R)-4-((1-acryloylpiperidin-3-yl)oxy)-2-((1-ethyl-1H-pyrazol-4-yl)amino)-7H-pyrrolo[2,3-d]pyrimidine-5-carbonitrile] | 0.3 nM | 1.6 nM | –
C=CC(=O)N1CC[C@@H](C)[C@@H](Nc2nc(Nc3cnn(C)c3)nc3[nH]nc(Cl)c23)C1 [Example 128] | 14.6 nM | 5.8 nM | –
C=CC(=O)N1CCC[C@@H](Nc2nc(Nc3ccc(N4CCOCC4)cc3)nc3[nH]ccc23)C1 [Example 4, (R)-1-(3-(2-(4-morpholinophenylamino)-7H-pyrrolo[2,3-d]pyrimidin-4-ylamino)piperidin-1-yl)prop-2-en-1-one] | 6.9 nM | 26.7 nM | –
C=CC(=O)N1CCC[C@@H](Nc2nc(Nc3ccc(N4CCOCC4)c(F)c3)nc3[nH]cc(Cl)c23)C1 [Example 98, (R)-1-(3-((5-chloro-2-((3-fluoro-4-morpholinophenyl)amino)-7H-pyrrolo [2,3-d]pyrimidin-4-yl)amino)piperidin-1-yl)prop-2-en-1-one] | 2.4 nM | 14.1 nM | –
C=CC(=O)N1CCC[C@@H](Nc2nc(Nc3ccc(N4CCN(C)CC4)cc3)nc3[nH]ccc23)C1 [Example 1, (R)-1-(3-(2-(4-(4-methylpiperazin-1-yl)phenylamino)-7H-pyrrolo[2,3-d]pyrimidin-4-ylamino)piperidin-1-yl)prop-2-en-1-one] | 3.73 nM | 10.7 nM | –
C=CC(=O)N1CCC[C@@H](Nc2nc(Nc3cnn(CC(F)F)c3)nc3[nH]nc(SC)c23)C1 [Example 190, (R)-1-(3-((6-((1-(2,2-difluoroethyl)-1H-pyrazol-4-yl)amino)-3-(methylthio)-1H-pyrazolo[3,4-d]pyrimidin-4-yl)amino)piperidin-1-yl)prop-2-en-1-one] | 2 nM | 0.76 nM | –
C=CC(=O)Nc1cccc(Nc2nc(N[C@@H]3CCCN(C(=O)CC#N)C3)c3cc[nH]c3n2)c1 [Example 26, (R)-N-(3-(4-(1-(2-cyanoacetyl)piperidin-3-ylamino)-7H-pyrrolo[2,3-d]pyrimidin-2-ylamino)phenyl)acrylamide] | 39.2 nM | – | 10.3%
C=CC(=O)N1CCC[C@@H](Nc2nc(Nc3cnn(CC(F)F)c3)nc3[nH]ccc23)C1 [Example 15, (R)-1-(3-(2-(1-(2,2-difluoroethyl)-1H-pyrazol-4-ylamino)-7H-pyrrolo[2,3-d]pyrimidin-4-ylamino)piperidin-1-yl)prop-2-en-1-one] | 0.3 nM | 7.2 nM | –
C=CC(=O)N1CCC[C@@H](Nc2nc(Nc3ccc(N4CCN(C)CC4)cc3)nc3[nH]nc(Cl)c23)C1 [Example 42] | 5.1 nM | 3.2 nM | –
C=CC(=O)N1CCC[C@@H](Oc2nc(Nc3cnn(C4CC4)c3)nc3[nH]cc(C#N)c23)C1 [Example 148, (R)-4-((1-acryloylpiperidin-3-yl)oxy)-2-((1-cyclopropyl-1H-pyrazol-4-yl)amino)-7H-pyrrolo[2,3-d]pyrimidine-5-carbonitrile] | 0.3 nM | 1.6 nM | –
C=CC(=O)N1CCC[C@@H](Nc2nc(Nc3cnn(CC)c3)nc3[nH]nc(C)c23)C1 [Example 185, (R)-1-(3-((6-((1-ethyl-1H-pyrazol-4-yl)amino)-3-methyl-1H-pyrazolo [3,4-d]pyrimidin-4-yl)amino)piperidin-1-yl)prop-2-en-1-one] | 15.1 nM | 2.1 nM | –
C=CC(=O)N1CCC[C@@H](Nc2nc(Nc3ccc(OCCN(CC)CC)cc3)nc3[nH]ccc23)C1 [Example 7, (R)-1-(3-(2-(4-(2-(diethylamino)ethoxy)phenylamino)-7H-pyrrolo[2,3-d]pyrimidin-4-ylamino)piperidin-1-yl)prop-2-en-1-one] | 5 nM | 14 nM | –
C=CC(=O)N1CCC[C@@H](Sc2nc(Nc3cnn(CC(C)C)c3)nc3[nH]nc(Cl)c23)C1 [Example 113, (R)-1-(3-((3-chloro-6-((1-isobutyl-1H-pyrazol-4-yl)amino)-1H-pyrazolo[3,4-d]pyrimidin-4-yl)thio)piperidin-1-yl)prop-2-en-1-one] | 2.8 nM | 2.3 nM | –
CC(C)/C=C(\C#N)C(=O)N1CCC[C@@H](Nc2nc(Nc3cnn(C4CC4)c3)nc3[nH]nc(Cl)c23)C1 [Example 162, (R,E)-2-(3-((3-chloro-6-((1-cyclopropyl-1H-pyrazol-4-yl)amino)-1H-pyrazolo[3,4-d]pyrimidin-4-yl)amino)piperidine-1-carbonyl)-4-methylpent-2-enenitrile] | 3 nM | 4.8 nM | –
C=CC(=O)N1CCC[C@@H](Nc2nc(Nc3cc(C)ns3)nc3[nH]cc(Cl)c23)C1 [Example 136, (R)-1-(3-((5-chloro-2-((3-methylisothiazol-5-yl)amino)-7H-pyrrolo[2,3-d]pyrimidin-4-yl)amino)piperidin-1-yl)prop-2-en-1-one] | 0.1 nM | 1.1 nM | –

Source: patent EP3478687B1 (Daewoong Pharmaceutical Co., Ltd., priority 2016, dated 2018)
